Data from ChEMBL document CHEMBL1201862, “PubChem BioAssay data set” (2004).
Active and inactive are the calls of the source.

Key:
BJ [1] = experiment: BJ-TERT fibroblast viability loss – cell-based, RAS-independent, luminescence, dose response (AID 1933); assay type: functional; settings: Homo sapiens
Fatty acid synthase [2] = target: T1, Fatty acid synthase (Homo sapiens, UniProt P49327); experiment: inhibition of human FAS-TE enzyme activity – biochemical, kinetic fluorescence intensity, dose response (AID 624326); assay type: functional;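 further: rate of fluorescence rise from hydrolysis of a fluorogenic O-methyl fluorescein ester substrate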
T1 sequence (P49327 whole entry): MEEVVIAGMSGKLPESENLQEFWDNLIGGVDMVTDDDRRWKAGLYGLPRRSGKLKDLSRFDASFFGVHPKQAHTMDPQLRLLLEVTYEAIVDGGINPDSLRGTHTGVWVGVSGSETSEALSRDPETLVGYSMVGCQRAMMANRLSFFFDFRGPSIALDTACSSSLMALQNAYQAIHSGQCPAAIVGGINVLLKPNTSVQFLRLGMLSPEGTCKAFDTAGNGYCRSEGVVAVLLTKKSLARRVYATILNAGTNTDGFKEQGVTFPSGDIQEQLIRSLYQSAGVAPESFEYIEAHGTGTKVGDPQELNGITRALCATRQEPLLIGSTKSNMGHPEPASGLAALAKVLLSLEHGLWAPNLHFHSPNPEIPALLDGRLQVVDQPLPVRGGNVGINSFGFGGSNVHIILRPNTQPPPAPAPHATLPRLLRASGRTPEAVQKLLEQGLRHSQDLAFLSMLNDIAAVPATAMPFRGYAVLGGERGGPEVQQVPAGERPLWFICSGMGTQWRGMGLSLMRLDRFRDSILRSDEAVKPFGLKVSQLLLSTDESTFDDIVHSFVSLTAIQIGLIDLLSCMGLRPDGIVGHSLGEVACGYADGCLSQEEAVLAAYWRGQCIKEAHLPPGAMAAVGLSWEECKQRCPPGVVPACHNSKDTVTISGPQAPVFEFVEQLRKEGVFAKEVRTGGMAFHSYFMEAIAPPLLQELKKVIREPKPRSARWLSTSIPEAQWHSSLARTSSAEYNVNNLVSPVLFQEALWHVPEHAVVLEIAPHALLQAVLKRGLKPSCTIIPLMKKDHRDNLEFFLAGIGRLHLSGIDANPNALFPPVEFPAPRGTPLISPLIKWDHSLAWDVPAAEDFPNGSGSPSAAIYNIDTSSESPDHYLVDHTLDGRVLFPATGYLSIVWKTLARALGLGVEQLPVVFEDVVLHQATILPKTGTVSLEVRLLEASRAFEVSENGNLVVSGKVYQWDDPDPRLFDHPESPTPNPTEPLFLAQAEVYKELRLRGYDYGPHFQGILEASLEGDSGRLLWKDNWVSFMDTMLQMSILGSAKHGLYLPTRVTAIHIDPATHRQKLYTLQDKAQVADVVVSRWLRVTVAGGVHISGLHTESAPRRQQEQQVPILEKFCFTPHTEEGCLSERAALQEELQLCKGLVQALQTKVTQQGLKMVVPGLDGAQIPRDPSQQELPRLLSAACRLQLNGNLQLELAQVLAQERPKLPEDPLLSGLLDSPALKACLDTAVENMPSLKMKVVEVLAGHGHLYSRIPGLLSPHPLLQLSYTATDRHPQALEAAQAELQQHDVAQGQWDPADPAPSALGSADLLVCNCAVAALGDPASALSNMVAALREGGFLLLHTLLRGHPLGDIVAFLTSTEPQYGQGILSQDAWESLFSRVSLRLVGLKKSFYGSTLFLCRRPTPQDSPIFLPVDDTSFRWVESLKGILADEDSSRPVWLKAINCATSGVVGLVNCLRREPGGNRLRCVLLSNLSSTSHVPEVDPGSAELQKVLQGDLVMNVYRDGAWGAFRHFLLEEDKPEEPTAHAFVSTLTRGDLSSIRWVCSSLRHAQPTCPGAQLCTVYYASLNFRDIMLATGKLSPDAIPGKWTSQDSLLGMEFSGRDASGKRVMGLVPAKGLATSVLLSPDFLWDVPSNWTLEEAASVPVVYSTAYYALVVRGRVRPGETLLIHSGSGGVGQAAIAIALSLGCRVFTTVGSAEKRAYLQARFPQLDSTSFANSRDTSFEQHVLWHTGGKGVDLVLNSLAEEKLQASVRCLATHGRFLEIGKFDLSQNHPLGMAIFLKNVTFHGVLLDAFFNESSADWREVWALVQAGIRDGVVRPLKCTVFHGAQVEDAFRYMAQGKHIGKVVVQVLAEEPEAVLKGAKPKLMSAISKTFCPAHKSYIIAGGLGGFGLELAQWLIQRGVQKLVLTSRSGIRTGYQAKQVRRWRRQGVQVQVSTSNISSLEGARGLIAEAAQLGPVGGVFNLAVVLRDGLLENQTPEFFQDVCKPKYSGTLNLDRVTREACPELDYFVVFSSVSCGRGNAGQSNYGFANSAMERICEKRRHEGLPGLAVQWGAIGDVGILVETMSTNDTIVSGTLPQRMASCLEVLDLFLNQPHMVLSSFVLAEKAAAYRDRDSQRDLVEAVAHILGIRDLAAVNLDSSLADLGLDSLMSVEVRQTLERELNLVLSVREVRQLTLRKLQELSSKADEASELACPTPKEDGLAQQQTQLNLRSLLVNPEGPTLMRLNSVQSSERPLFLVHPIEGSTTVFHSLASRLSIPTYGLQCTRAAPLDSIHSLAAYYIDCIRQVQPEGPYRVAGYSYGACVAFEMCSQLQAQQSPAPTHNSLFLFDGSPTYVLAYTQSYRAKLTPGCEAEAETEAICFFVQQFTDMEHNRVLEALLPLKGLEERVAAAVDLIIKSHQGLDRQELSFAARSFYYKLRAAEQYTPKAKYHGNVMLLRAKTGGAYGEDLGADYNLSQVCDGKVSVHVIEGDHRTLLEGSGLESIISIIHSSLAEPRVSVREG

[3] = Luminescence Cell-Based Dose Confirmation HTS to Identify Inhibitors of Platelet Dense Granule Release. [Related pubchem assays: 1663 (Primary HTS), 1678 (Summary of Project)]; assay type: functional
Genome polyprotein = Genome polyprotein (dengue virus type 2, UniProt P29990); experiment: flavivirus cap methylation enzyme inhibition – biochemical, confirmation dose response, primary screen (AID 588689); assay type: functional
Genome polyprotein, sequence (P29990 2492-3391 limits assumed): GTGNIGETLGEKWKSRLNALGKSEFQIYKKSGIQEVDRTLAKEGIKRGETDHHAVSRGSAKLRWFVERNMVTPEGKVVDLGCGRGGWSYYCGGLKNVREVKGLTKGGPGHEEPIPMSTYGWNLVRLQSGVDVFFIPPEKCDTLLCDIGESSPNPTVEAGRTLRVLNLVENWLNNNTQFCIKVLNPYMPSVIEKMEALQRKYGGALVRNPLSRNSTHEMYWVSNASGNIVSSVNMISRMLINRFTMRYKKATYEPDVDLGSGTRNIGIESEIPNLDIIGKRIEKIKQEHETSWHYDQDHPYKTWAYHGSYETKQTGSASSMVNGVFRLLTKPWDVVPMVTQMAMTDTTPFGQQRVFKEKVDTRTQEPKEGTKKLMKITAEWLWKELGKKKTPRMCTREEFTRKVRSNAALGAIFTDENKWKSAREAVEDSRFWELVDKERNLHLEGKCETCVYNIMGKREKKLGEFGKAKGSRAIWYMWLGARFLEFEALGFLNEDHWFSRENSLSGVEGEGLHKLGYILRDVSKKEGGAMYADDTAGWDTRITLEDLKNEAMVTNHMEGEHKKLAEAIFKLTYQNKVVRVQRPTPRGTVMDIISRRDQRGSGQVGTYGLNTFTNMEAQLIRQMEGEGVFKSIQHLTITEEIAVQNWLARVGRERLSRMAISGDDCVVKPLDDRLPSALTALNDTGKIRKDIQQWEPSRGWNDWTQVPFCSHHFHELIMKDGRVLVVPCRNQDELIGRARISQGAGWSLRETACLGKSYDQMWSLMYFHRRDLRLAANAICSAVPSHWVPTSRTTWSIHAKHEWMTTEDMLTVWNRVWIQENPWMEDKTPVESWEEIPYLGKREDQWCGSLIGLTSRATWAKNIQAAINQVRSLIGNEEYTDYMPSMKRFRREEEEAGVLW

BJ [4] = experiment: growth inhibition of engineered Ras-driven BJ cells – cell-based, alamar blue fluorescence, cherrypicked samples, dose response (AID 2631); assay type: functional; settings: Homo sapiens;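 further: confirmatory dose-response assay in RAS-dependent BJ fibroblasts engineered with TERT, LT and ST, with cytotoxicity read by fluorescence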
[5] = target: T2, Replicative DNA helicase DnaB (Mycobacterium tuberculosis, UniProt P9WMR3); experiment: DnaB intein splicing inhibitors, dose response, biochemical, cell-free fluorescence (AID 449749); assay type: functional
T2 sequence (P9WMR3 whole entry): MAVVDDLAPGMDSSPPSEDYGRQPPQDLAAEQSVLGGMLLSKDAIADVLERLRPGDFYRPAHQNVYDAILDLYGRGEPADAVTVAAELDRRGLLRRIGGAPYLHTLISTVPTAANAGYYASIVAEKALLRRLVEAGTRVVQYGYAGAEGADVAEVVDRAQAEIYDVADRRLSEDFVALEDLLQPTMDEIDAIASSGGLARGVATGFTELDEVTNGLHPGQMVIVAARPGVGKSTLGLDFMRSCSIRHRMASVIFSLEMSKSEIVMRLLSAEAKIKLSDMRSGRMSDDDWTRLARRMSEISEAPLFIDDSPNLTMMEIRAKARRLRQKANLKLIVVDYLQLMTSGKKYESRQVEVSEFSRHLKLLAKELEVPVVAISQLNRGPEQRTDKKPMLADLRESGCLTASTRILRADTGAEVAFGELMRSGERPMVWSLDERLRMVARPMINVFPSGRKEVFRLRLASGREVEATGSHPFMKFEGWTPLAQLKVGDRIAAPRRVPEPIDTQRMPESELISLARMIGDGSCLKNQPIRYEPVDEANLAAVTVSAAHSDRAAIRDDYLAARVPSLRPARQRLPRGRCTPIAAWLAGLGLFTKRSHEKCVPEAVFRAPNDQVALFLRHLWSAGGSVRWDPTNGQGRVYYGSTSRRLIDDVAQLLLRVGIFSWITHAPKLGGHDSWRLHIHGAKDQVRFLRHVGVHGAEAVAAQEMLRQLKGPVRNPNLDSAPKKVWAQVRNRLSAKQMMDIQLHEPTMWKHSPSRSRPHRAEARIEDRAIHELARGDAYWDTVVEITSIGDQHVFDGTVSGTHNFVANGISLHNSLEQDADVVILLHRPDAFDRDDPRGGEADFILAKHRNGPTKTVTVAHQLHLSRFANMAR

Vero = experiment: viability of Vero cells under compound – cytotoxicity control for flavivirus capping enzyme inhibitors (AID 588742); assay type: functional; settings: Chlorocebus sabaeus
INS1 = experiment: INS-1E survival protection against cytokine death – cell-based, luminescence, retest, dose response (AID 449756); assay type: functional; settings: Rattus norvegicus;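 further: cell death triggered by IL-1 beta plus TNF-alpha plus IFN-gamma mixture; protective hits raise ATP signal compared with cytokine alone wells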
CHO = CHO cell viability loss, potency – luminescence, cytotoxicity control for TLR9-MyD88 binding inhibitor project, dose response (AID 588339); assay type: functional, cell-based, hamster; settings: Cricetulus griseus;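 further: CHO cells stably coexpressing TLR9 and MyD88 fusions from primary screen; compound exposure lasted 48 hours before viability readout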
[6] = target: Luciferin 4-monooxygenase (Photinus pyralis, UniProt P08659); experiment: inhibition of purified Photinus pyralis luciferase – biochemical, luminescence, dose response (AID 1891)
Luciferin 4-monooxygenase, sequence (P08659 whole entry): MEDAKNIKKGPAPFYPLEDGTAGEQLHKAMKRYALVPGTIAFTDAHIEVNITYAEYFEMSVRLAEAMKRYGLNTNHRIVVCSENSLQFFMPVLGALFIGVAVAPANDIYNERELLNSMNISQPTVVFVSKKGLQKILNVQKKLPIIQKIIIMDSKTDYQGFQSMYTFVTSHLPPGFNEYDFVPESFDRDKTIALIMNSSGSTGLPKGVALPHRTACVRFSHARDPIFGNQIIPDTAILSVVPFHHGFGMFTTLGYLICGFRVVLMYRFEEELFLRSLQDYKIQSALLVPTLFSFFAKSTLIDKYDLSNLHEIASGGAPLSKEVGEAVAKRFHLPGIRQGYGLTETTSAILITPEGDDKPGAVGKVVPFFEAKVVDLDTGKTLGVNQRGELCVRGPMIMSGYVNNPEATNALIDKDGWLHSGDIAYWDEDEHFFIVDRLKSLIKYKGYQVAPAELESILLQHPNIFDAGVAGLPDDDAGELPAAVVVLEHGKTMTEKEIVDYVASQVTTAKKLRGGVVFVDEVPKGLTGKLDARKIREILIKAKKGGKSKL

[7] = DRD fibroblast viability loss – cell-based, non-viral oncogenic, luminescence, dose response (AID 1934); assay type: functional; settings: Homo sapiens
Beta Lactamase [8] = target: T3, Beta Lactamase (Pseudomonas aeruginosa, UniProt Q932Y6); experiment: BLA reporter interference, concentration series – BLA reporter cells, FRET fluorescence, artefact control for NOD2-RIPK2 interaction inhibitor project, dose response (AID 651552); assay type: functional, cell-based
T3 sequence (Q932Y6 whole entry): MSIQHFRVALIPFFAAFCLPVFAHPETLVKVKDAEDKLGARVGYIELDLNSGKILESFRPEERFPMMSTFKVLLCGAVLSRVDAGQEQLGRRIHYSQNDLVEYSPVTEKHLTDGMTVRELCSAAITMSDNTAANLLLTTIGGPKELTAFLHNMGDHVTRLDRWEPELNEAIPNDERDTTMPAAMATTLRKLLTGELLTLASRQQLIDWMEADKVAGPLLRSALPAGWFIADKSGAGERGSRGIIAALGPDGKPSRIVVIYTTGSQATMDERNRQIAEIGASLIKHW

BJ [9] = experiment: BJ-TERT-LT-ST fibroblast viability loss – cell-based, RAS-independent, luminescence, dose response (AID 1935); assay type: functional; settings: Homo sapiens;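 further: BJ fibroblasts immortalized with TERT plus LT and ST oncogenes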
Fatty acid synthase [10] = target: T1, Fatty acid synthase; experiment: inhibition of human FAS-TE enzyme activity – biochemical, endpoint fluorescence intensity, uHTS hits, dose response (AID 624327); assay type: functional;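 further: fluorescence from hydrolysis of an O-methyl fluorescein acyl ester substrate by the enzyme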
Large T antigen = Large T antigen (Simian virus 40, UniProt P03070); assay type: functional, Betapolyomavirus macacae;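 further: Confirmatory-stage PubChem screen for compounds that inhibit SV40 T antigen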
Large T antigen, sequence (P03070 whole entry, the tested form may be a part): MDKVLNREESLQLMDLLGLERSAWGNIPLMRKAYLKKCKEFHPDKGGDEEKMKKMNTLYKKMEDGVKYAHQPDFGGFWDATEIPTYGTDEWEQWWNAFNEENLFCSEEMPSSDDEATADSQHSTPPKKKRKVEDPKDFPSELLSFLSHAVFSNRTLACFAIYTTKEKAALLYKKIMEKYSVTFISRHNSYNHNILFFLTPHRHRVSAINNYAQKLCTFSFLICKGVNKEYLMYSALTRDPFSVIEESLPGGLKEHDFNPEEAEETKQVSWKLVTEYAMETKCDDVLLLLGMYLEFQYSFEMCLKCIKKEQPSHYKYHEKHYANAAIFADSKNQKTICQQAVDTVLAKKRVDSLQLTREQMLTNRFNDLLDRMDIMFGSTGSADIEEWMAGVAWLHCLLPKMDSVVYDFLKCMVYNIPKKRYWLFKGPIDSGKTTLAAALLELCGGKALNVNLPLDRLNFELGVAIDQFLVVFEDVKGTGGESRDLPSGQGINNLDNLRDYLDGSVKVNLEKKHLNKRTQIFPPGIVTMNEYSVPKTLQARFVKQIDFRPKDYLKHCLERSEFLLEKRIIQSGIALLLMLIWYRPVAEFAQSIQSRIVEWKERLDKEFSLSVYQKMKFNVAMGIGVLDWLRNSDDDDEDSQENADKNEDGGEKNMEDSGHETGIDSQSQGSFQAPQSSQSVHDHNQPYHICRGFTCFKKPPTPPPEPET

[11] = Fluorescence-based cell-based high throughput dose response assay for inhibitors of the interaction of nucleotide-binding oligomerization domain containing 2 (NOD2) and the receptor-interacting serine-threonine kinase 2 (RIPK2).; assay type: functional; settings: Homo sapiens
BJ [12] = experiment: cells; assay type: functional, cell-based; settings: Homo sapiens
Beta Lactamase [13] = target: T3, Beta Lactamase; experiment: BLA reporter interference, concentration series – BLA reporter cells, FRET fluorescence, artefact control for TLR9-MyD88 binding inhibitor project, dose response (AID 588341); assay type: cell-based;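 further: cell based assay in CHO-K1 cells stably expressing beta-lactamase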
Protein RecA = target: T4, Protein RecA (Mycobacterium tuberculosis, UniProt P9WHJ3); experiment: Fluorescence Cell-Free Homogeneous Dose Retest to Identify Inhibitors of RecA-Intein Splicing Activity. [Related pubchem assays (depositor defined):AID2097, AID2223, AID489010, AID492950]; assay type: functional
T4 sequence (P9WHJ3 whole entry): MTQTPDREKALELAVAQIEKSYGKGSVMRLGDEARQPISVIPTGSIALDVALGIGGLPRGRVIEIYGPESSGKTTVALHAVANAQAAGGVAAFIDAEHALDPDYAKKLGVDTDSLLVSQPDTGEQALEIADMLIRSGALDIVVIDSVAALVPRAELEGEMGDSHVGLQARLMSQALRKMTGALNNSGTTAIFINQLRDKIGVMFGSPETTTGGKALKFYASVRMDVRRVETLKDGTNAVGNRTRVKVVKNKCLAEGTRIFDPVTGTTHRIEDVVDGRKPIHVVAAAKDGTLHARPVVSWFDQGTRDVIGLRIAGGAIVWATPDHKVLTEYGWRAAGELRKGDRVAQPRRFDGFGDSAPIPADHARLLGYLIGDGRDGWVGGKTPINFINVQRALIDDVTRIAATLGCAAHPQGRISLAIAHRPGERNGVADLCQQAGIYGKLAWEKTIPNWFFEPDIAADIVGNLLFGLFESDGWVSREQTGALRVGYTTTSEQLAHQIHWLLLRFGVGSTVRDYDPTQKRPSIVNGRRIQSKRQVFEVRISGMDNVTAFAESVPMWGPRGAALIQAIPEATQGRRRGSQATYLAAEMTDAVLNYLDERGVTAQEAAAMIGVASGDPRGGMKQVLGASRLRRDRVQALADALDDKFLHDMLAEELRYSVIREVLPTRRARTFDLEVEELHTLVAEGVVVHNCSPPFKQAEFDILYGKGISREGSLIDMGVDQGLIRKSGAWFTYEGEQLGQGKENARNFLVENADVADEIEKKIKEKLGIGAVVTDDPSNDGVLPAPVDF

[14] = viability of HCT116 lacking mutant beta-catenin – cell-based, human colon tumor, dose response (AID 1045); assay type: functional;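 further: HCT116 colon tumor cells with beta catenin knocked out; cells exposed to compound for 60 hours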
Orexin receptor type 2 [15] = target: T5, Orexin receptor type 2 (Homo sapiens, UniProt O43614); experiment: Counterscreen assay for antagonists of the orexin 1 receptor (OX1R; HCRTR1): Fluorescence-based cell-based dose response assay for antagonists of the orexin 2 receptor (OX2R; HCRTR2), run by assay provider.; assay type: functional
T5 sequence (O43614 whole entry): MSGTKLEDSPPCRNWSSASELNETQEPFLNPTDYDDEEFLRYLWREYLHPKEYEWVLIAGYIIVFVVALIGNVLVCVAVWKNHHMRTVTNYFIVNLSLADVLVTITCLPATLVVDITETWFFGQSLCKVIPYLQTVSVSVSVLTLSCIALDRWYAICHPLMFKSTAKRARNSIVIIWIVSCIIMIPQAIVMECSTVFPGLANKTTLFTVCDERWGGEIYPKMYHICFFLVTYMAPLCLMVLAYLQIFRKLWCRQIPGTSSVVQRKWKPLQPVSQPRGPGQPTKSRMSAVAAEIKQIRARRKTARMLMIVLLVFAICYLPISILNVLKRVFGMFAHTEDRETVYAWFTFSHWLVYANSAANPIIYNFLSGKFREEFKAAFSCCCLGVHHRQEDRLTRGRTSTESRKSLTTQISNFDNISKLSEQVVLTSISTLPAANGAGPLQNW

[16] = viability of PTEN-deleted HCT116 cells – cell-based, HCT116 PTEN knockout, dose response (AID 1047); assay type: functional;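 further: HCT116 colon tumor cells with PTEN knocked out; cells exposed to compound for 60 hours before readout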
Orexin receptor type 2 [17] = target: T5, Orexin receptor type 2; experiment: Counterscreen assay for antagonists of the orexin 1 receptor (OX1R; HCRTR1): Homogeneous Time Resolved Fluorescence (HTRF)-based cell-based dose response assay for antagonists of the orexin 2 receptor (OX2R; HCRTR2), run by assay provider.; assay type: functional
[18] = target: T6, Orexin/Hypocretin receptor type 1 (Homo sapiens, UniProt O43613); experiment: Homogeneous Time Resolved Fluorescence (HTRF)-based cell-based high throughput dose response assay for antagonists of the orexin 1 receptor (OX1R; HCRTR1). [Related pubchem assays (depositor defined):AID434989, AID435008, AID463079, AID485270, AID492963, AID492964, AID492965, AID493232, AID504717, AID504718]; assay type: functional
T6 sequence (O43613 whole entry): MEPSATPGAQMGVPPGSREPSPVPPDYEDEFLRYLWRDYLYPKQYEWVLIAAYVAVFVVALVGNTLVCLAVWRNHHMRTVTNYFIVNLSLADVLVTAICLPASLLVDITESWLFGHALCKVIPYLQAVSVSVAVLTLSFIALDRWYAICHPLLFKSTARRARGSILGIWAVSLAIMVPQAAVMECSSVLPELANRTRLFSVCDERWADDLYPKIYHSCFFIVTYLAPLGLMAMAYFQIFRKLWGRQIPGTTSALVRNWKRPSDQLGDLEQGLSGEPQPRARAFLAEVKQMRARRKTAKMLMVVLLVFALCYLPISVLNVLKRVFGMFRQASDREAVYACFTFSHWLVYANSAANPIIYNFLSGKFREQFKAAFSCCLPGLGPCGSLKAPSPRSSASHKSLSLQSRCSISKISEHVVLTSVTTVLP

CHO-K1 = experiment: Counterscreen for antagonists of the orexin 1 receptor (OX1R; HCRTR1): Homogeneous time resolved fluorescence (HTRF)-based cell-based dose response assay to identify antagonists of the parental CHO-K1 cell line. [Related pubchem assays (depositor defined):AID434989, AID435008, AID463079, AID485270, AID492963, AID492964, AID492965, AID493232, AID504699, AID504701]; assay type: functional; settings: Cricetulus griseus;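 further: potency for inhibition of ATP-stimulated IP1 production as antagonists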
[19] = Counterscreen for antagonists of the orexin 1 receptor (OX1R; HCRTR1): Fluorescence-based cell-based high throughput dose response assay to identify antagonists of the parental CHO cell line. [Related pubchem assays (depositor defined):AID434989, AID435008, AID463079, AID485270, AID492963, AID492964, AID492965, AID493232, AID504699, AID504701]; assay type: functional
[20] = target: T6, Orexin/Hypocretin receptor type 1; experiment: Fluorescence-based cell-based high throughput dose response assay for antagonists of the orexin 1 receptor (OX1R; HCRTR1). [Related pubchem assays (depositor defined):AID434989, AID435008, AID463079, AID485270, AID492963, AID492964, AID492965, AID493232, AID504717, AID504718]; assay type: functional
Prothrombin = Prothrombin (Bos taurus, UniProt P00735); experiment: thrombin protease inhibitors – biochemical, fluorescence polarization, uHTS hits, dose response (AID 602369); assay type: functional
[21] = target: DNA (cytosine-5)-methyltransferase 1 (Homo sapiens, UniProt P26358); experiment: inhibition of DNA methylation by DNMT1 – biochemical, fluorescent molecular beacon, confirmation (AID 602386); assay type: functional
[22] = target: 26S proteasome non-ATPase regulatory subunit 14 (Homo sapiens, UniProt O00487); experiment: inhibition of proteasome subunit RPN11 – biochemical, fluorescence polarization, uHTS hits, confirmation (AID 602368); assay type: functional
[23] = target: 72 kDa type IV collagenase (Homo sapiens, UniProt P08253); experiment: Dose Response validation of uHTS RPN11 inhibitor hits using a MMP-2 Fluorescence assay.; assay type: functional

O=[N+]([O-])c1c(Nc2ccc(O)cc2)cc(Cl)c2nonc12
active: IC50 (Fatty acid synthase [2]) 4.41 µM | EC50 [3] 4.2 µM | IC50 (Genome polyprotein) 10.4 µM | EC50 (BJ [4]) 501 nM | AC50 [5] 1.1 µM | CC50 (Vero) 16.9 µM | AC50 (INS1) 5.23 µM | IC50 (CHO) 1.13 µM | EC50 [7] 2.66 µM | IC50 (Beta Lactamase [8]) 5.98 µM | IC50 (Fatty acid synthase [10]) 5.26 µM | IC50 (Large T antigen) 12.3 µM | IC50 [11] 969 nM | IC50 (Beta Lactamase [13]) 6.38 µM | EC50 (Protein RecA) 926 nM
> 112 µM (not active): EC50 [6]
inconclusive: EC50 (BJ [1]) 1.92 µM | EC50 (BJ [9]) 3.96 µM | EC50 (BJ [12]) 5.3 µM

O=C(c1ccco1)N1CCCC(c2nc(-c3ccc(S(=O)(=O)NCc4ccccc4)cc3)no2)C1 (stereo not drawn)
inactive: IC50 (Orexin receptor type 2 [15]) 39.3 µM
active: EC50 [14] 18.6 µM | EC50 [16] 21.2 µM | IC50 (Orexin receptor type 2 [17]) 5.51 µM

Cc1ccc(NC2CCCN(C(=O)c3cccc(-c4ncc[nH]4)c3)C2)cc1C (stereo not drawn)
inactive: IC50 (CHO-K1) > 66.2 µM | IC50 [19] > 49.7 µM | IC50 (Orexin receptor type 2 [15]) 17.1 µM
active: IC50 [18] 175 nM | IC50 [20] 2.99 µM | IC50 (Orexin receptor type 2 [17]) 4.48 µM

O=C(O)CCCCCN1C(=O)/C(=C/c2cn(-c3ccccc3)nc2-c2cccs2)SC1=S
active: IC50 (Prothrombin) 29 µM | IC50 [21] 5.56 µM | IC50 [22] 7.92 µM | IC50 [23] 10.3 µM
